Laboratory results from the kinase profiling compilation of Christmann-Franck et al. (2016).

Target: SGK1 (human) (UniProt O00141)
Test: Flashplate

Sequence of SGK1 (human) (O00141 whole entry, looked up): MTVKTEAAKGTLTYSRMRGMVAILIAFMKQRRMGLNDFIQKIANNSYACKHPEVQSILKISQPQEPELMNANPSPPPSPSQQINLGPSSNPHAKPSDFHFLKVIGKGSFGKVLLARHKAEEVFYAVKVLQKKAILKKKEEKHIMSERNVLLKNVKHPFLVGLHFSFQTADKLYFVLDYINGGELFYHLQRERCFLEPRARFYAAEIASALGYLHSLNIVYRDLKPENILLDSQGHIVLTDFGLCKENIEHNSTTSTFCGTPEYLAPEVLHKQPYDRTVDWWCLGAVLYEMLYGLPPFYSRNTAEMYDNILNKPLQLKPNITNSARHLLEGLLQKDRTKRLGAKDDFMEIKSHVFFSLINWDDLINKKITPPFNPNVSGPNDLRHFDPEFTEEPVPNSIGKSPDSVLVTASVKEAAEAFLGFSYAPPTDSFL

Ki [µM] | Compound
5.01 | Cc1ccc(-c2ccc(NC(=O)Nc3cccc(Br)c3)cc2)c2c(N)n[nH]c12
> 10 | O=c1[nH]c2ccc(Cl)cc2c(-c2ccccc2)c1C1=NNC(c2ccccc2)C1 (centres undefined)
> 10 | COc1cc(OC)c(Nc2ccc3nnc(-c4ccccc4)n3n2)cc1Cl
> 10 | CCOC(=O)c1cccc2[nH]c(-c3ccc(N4CCC(N)C4)cc3)nc12 (centres undefined)
> 10 | Fc1ccc(-c2nc3cnccn3c2-c2ccnc(NCC3CC3)n2)cc1
> 10 | O=C(NCCCCCCNC(=O)NCc1cccnc1)NCc1cccnc1
> 10 | O=C(Nc1nc2ccccc2n1CCCO)c1cccc([N+](=O)[O-])c1
> 7.94 | Cc1cccc(NC(=O)Nc2ccc(-c3cncc4c3c(N)nn4C)cc2)c1
2 | COc1cccc(C(=O)Nc2cnc3[nH]cc(-c4ccccc4)c3c2)c1
> 6.31 | CC(C)(C)n1nc(-c2ccc(Cl)cc2)c2c(N)ncnc21
> 10 | Nc1nonc1-n1nnc(C(=O)N/N=C/c2ccncc2)c1-c1ccccc1
> 10 | CSc1c[nH]c2ncnc(NCCCO)c12
> 10 | O=C(N/N=C/c1ccc(Sc2nc3ccccc3[nH]2)o1)c1cccc([N+](=O)[O-])c1
> 10 | COc1ccc(C(=O)Nc2nc3ccc(Cl)cc3s2)c(OC)c1
> 10 | Cn1c2ccccc2c2c3c(c4c5ccccc5n(CCC#N)c4c21)CNC3=O
> 10 | O=C(Nc1cccc(C(F)(F)F)n1)Nc1ccnc2c(F)cccc12
6.31 | CSc1ccccc1CNc1ncc([N+](=O)[O-])c(NCC2CCC(CN)CC2)n1 (centres undefined)
> 10 | CS(=O)(=O)Nc1cc2c(cc1Cl)NC(=O)Nc1cnc(C#N)c(n1)OCCCCCO2
> 10 | O=C1NCc2c1cccc2-c1ccc(Nc2nc3ccccc3o2)cc1
0.02 | COc1cccc([C@@H](C)NC(=O)N2CC=C(c3c[nH]c4ncccc34)CC2)c1
0.794 | COc1cccc(CNC(=O)c2cc3c(-c4ccccc4)n[nH]c3s2)c1
> 10 | OCCCn1cnc(-c2ccccc2)c1-c1ccncc1
> 10 | Cc1ccc(F)c(-c2ccc3nnc(N)n3c2)c1
> 7.94 | CNC(=O)c1ccccc1Nc1nc(Nc2ccc(N3CCOCC3)cc2OC)ncc1Cl
6.31 | Cc1cccc(NC(=O)Nc2ccc(NC(=O)c3csc4ncnc(N)c34)cc2)c1
0.501 | CCCC(=O)Nc1cccc(-c2nc(Nc3ccc4[nH]ncc4c3)c3cc(OCCN4CCCC4)ccc3n2)c1

Ki [µM] | Compound
> 10 | CCNNc1cc(C)c(C#N)c2nc3ccccc3n12
6.31 | Nc1ncc(-c2ccoc2)c2scc(-c3ccc(NC(=O)Nc4cccc(F)c4)cc3)c12
3.98 | O=C(NC(CO)c1cc(Cl)cc(Cl)c1)c1ccc(-c2ccncc2)cc1 (centres undefined)
> 10 | Nc1ncnc2onc(-c3ccc(NC(=O)Nc4cccc(C(F)(F)F)c4)cc3)c12
> 10 | COc1cc2ncn(-c3cc(OCc4ccccc4C(F)(F)F)c(C(=O)O)s3)c2cc1OC
3.16 | Cc1cc(C)c2c(n1)sc1c(N)ncnc12
> 10 | O=C(Nc1ccc(CO)cc1)c1cnn2c(-c3ccccc3)ccnc12
> 10 | Cc1ccc(-n2nc(C)c3c(=O)c4cc(Cl)ccc4n(O)c32)cc1
> 10 | Cc1ccc(NC(=O)Nc2ccc(-c3cccc4c3CNC4=O)cc2)cc1C
> 10 | Cc1csc(NC(=O)c2sc3nc(-c4ccncc4)ccc3c2N)n1
2 | COc1ccc(Nc2nccc(Nc3c(N[C@H](C)C(C)(C)C)c(=O)c3=O)n2)cc1OC
> 10 | COc1cc(/C=C(\C#N)c2n[nH]c(N)c2C#N)ccc1O
3.98 | Cc1n[nH]c2sc(C(=O)NCCc3ccc(Cl)cc3)cc12
> 10 | CN(C)CC(C)(C)CNc1nccc(-c2c(-c3ccc(F)cc3)nc3occn23)n1
0.398 | CC(=O)NCC(=O)N1C2CCC1c1cc(Nc3ncc(C(F)(F)F)c(NC4CCC4)n3)ccc12 (centres undefined)
> 10 | CC(C)(CO)c1nnc2ccc(-c3c(-c4ccc(F)cc4F)nc4n3CCC4)nn12
6.31 | Nc1nccc(-c2c(-c3ccc(F)cc3)ncn2C2CCNCC2)n1
6.31 | Cc1cccc(NC(=O)Nc2ccc(-c3csc4c(C#CCN(C)C)cnc(N)c34)cc2)c1
> 10 | Nc1ncnc(Nc2cc(CNC(=O)C(F)(F)F)c(O)c(-c3ccc(Cl)cc3)c2)n1
> 10 | COc1ccc(-c2cc3nccn3c(Nc3ncccc3C(N)=O)n2)cc1OC
> 10 | Cc1ccc2nccc(NC(=O)Nc3cccc(C(F)(F)F)n3)c2c1
> 10 | Cc1cccc(NC(=O)Nc2ccc(-c3csc4c(C#Cc5cccnc5)cnc(N)c34)cc2)c1
3.98 | CCC(N)(C#Cc1cnc(N)c2c(-c3ccc(NC(=O)Nc4cccc(C)c4)cc3)csc12)CC
> 10 | Fc1cnc(Nc2ccccc2)nc1Nc1ccccc1
> 10 | CCCCCCCCCCCCOc1ccc(NC(=N)N)cc1NC(=N)N
> 10 | CNC(=O)/C=C/c1cnc(N)c2c(-c3ccc4sc(C)nc4c3)csc12

Ki [µM] | Compound
> 10 | Fc1ccc(-c2nc3sccn3c2-c2ccncc2)cc1
> 10 | Brc1ccc2c(c1)-c1[nH]ncc1C2
3.98 | Cc1cccc(NC(=O)Nc2ccc(-c3csc4c(C#CCN)cnc(N)c34)cc2)c1
0.316 | COc1cccc([C@H](C)NC(=O)c2ccc(-c3ccncc3)c(C)c2)c1
> 10 | COc1ccc(NC(=O)Nc2ccc(-c3csc4c(-c5cnn(CCO)c5)cnc(N)c34)cc2)cc1
> 10 | Cc1ccc(F)c(NC(=O)Nc2ccc(-c3nsc4ncnc(N)c34)cc2)c1
> 10 | O=C(Cc1ccc(Cl)cc1)Nc1[nH]nc2c1CCC2
> 10 | CC(C)(O)c1nnc2ccc(-c3c(-c4ccc(F)cc4F)nc4n3CCC4)nn12
> 10 | Clc1cc2nn[nH]c2cc1Cl
10 | Cc1cccc(NC(=O)Nc2ccc(-c3csc4c(C#CCNS(C)(=O)=O)cnc(N)c34)cc2)c1
> 10 | Cc1cccc(NC(=O)Nc2ccc(-c3csc4nc(N)nc(N)c34)cc2)c1
> 7.94 | COc1cc(-c2ccc3c(c2)NC(=O)c2ccc(-c4ccccc4NS(C)(=O)=O)cc2N3)cc(OC)c1OC
> 10 | Nc1nccc2scc(-c3ccc(NC(=O)Nc4ccccc4C(F)(F)F)cc3)c12
> 10 | Cc1cc(C)cc(NC(=O)Nc2ccc3c(c2)CCc2sc4ncnc(N)c4c2-3)c1
> 10 | C[C@]1(O)C[C@@H](c2nc(-c3ccc4ccc(-c5ccccc5)nc4c3)c3c(N)nccn32)C1
3.98 | CN(C)c1cccc2c(S(=O)(=O)N(CCN)c3cncc(-c4ccc5cnccc5c4)c3)cccc12
> 10 | Nc1ncnn2ccc(C(=O)Nc3ccc(NC(=O)Nc4cccc(F)c4)cc3)c12
> 10 | O=C(Nc1cccc(C(F)(F)F)n1)Nc1ccnc2cc(C(F)(F)F)ccc12
> 10 | CC1=NN(c2ccccc2)C(=O)/C1=C/c1c(C)c(C#N)c2nc3ccccc3n2c1O
7.94 | NC(=O)c1cccc2c1Nc1nnc(Cl)cc1C(=O)N2
1.58 | NC(=O)c1cc(-c2ccnc(N)n2)[nH]c1-c1ccc(Cl)cc1Cl
> 6.31 | CC(C)(C)c1cnc(CSc2cnc(NC(=O)C3CCNCC3)s2)o1
> 10 | Cc1nn(C)c2c1c(=O)c1cc(Cl)ccc1n2OCC(C)C
> 10 | NC(=O)c1cccc2[nH]c(-c3ccc(C4CCCNC4)cc3F)nc12 (centres undefined)
1 | O=C(NCc1ccc(Cl)cc1)c1cc2c(-c3ccccc3)n[nH]c2s1
> 10 | COCCO[C@H]1CC[C@H](n2nc(-c3ccc(Nc4nc5cc(C)cc(Cl)c5o4)cc3)c3c(N)ncnc32)CC1

Compound | Ki [µM]
FC(F)(F)Oc1ccc(-c2ccc3[nH]cc(C4=CCNCC4)c3c2)cc1 | > 10
